From article PMC3382786, “Anti-Hyperglycemic Effect of Chebulagic Acid from the Fruits of Terminalia chebula Retz” (International Journal of Molecular Sciences, 2012)
Converted amounts (≈) assume the structure as drawn.

Tests used:
[1] = test system: T1, Caco-2 maltase (maltose-hydrolysis activity of α-glucosidase); test: maltose hydrolysis on Caco-2 monolayer, liberated glucose by glucose oxidase; assay type: cell-based, Homo sapiens; details: 28 mM maltose in PBS; 37 °C, 2 h; reversible
T1 construct: gene SI; native enzyme on the apical side of differentiated Caco-2 monolayer

[2] = target: T2, rat intestinal α-glucosidase (maltase activity); test: maltose hydrolysis, liberated glucose by glucose oxidase; assay type: biochemical; details: maltose 3.5 mM stock (0.35 of 0.5 mL); 0.1 M potassium phosphate pH 6.3; 37 °C, 15 min; crude enzyme
T2 construct: gene Mgam; crude native enzyme solution from rat intestinal acetone powder (Sigma-Aldrich); maltose hydrolysis; not purified

For `O=C(O)C[C@@H]1C(=O)O[C@H]2[C@@H]3OC(=O)c4cc(O)c(O)c(O)c4-c4c(cc(O)c(O)c4O)C(=O)OC[C@H]2O[C@@H](OC(=O)c2cc(O)c(O)c(O)c2)[C@@H]3OC(=O)c2cc(O)c(O)c3c2[C@H]1[C@H](O)C(=O)O3` [chebulagic acid], which “% inhibition at 0.5 mM/well” value [1] is on record?
Its value is 73%.

What about the IC50 [2] of the same compound?
Its IC50 is 37 µg/mL (≈ 38.8 µM).
